Measured values published in ChEMBL document CHEMBL4706703, “Novel 3-benzylidene/benzylphthalide Mannich base derivatives as potential multifunctional agents for the treatment of Alzheimer's disease” (Bioorg Med Chem, 2021).

Assays:
[1] = biological target: Acetylcholinesterase (Electrophorus electricus, UniProt O42275); assay: Inhibition of Electrophorus electricus AChE using acetylthiocholine iodide as substrate incubated for 15 mins by Ellman's method
[2] = biological target: T1, MAO-A (Homo sapiens, UniProt P21397); assay: Inhibition of recombinant human MAOA at 10 uM using kynuramine as substrate preincubated for 30 mins followed by substrate addition and measured after 30 mins by fluorescence assay relative to control; settings: probe kynuramine, time 60 min
T1 sequence (P21397 whole entry): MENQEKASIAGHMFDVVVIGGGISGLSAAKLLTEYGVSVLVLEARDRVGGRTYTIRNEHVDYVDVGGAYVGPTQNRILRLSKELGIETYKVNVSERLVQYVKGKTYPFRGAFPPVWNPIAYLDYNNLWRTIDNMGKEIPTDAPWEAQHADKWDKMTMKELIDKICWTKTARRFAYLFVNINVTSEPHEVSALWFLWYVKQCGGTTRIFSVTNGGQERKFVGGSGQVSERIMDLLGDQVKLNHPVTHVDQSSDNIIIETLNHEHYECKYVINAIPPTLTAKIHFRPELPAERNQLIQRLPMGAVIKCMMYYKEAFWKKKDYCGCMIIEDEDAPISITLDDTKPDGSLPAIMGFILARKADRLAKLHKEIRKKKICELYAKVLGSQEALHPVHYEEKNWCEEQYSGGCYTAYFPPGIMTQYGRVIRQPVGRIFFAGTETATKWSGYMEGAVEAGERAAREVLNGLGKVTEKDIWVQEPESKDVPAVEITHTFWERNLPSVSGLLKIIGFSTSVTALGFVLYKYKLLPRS

[3] = tested on: Plasma; assay: Antiplatelet activity in rat platelet-rich plasma assessed as inhibition of ADP-induced platelet aggregation at 33 uM preincubated for 30 mins followed by ADP addition measured within 5 mins by aggregometry relative to control; type: functional; settings: time 30-35 min
[4] = biological target: T2, Amine oxidase [flavin-containing] B (Homo sapiens, UniProt P27338); assay: Inhibition of recombinant human MAOB at 10 uM using kynuramine as substrate preincubated for 30 mins followed by substrate addition and measured after 30 mins by fluorescence assay relative to control; settings: 0.5 h
T2 sequence (P27338 whole entry): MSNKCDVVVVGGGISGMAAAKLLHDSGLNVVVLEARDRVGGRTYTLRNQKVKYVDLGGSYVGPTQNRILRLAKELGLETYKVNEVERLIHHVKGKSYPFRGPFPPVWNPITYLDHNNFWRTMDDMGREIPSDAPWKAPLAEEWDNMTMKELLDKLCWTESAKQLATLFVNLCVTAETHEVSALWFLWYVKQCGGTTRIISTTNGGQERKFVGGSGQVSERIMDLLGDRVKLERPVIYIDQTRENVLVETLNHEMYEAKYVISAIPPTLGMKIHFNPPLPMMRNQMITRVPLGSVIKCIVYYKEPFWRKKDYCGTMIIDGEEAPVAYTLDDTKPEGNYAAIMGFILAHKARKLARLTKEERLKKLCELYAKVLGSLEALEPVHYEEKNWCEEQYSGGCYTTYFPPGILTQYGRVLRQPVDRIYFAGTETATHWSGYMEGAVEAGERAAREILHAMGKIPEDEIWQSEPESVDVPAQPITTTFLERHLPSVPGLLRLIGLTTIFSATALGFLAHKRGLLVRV

[5] = biological target: Amyloid-beta precursor protein (Homo sapiens) (UniProt P05067); assay: Inhibition of amyloid beta (1 to 42) (unknown origin) self aggregation at 25 uM after 24 hrs by thioflavin-T fluorescence method relative to control
Chain of Amyloid-beta precursor protein (Homo sapiens) (P05067 whole entry): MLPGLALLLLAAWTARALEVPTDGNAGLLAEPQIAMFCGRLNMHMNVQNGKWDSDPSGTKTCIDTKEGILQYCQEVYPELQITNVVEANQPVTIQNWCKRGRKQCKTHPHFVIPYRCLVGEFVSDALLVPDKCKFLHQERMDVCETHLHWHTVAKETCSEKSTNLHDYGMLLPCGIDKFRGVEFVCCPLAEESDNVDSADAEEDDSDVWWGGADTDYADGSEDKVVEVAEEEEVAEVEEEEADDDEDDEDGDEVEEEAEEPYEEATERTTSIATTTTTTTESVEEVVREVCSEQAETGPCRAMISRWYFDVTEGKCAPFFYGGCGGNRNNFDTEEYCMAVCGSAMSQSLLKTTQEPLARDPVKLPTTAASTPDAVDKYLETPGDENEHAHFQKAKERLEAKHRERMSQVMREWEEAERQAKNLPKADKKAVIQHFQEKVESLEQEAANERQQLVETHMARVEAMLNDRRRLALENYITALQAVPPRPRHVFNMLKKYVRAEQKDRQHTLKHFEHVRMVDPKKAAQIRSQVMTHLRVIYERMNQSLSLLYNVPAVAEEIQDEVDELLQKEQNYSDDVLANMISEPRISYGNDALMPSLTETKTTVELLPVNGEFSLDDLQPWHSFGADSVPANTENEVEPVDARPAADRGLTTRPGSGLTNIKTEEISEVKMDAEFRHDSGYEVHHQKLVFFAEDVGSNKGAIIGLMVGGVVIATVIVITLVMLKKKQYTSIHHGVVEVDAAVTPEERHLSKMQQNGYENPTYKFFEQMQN

[6] = biological target: butyrylcholinesterase (BuChE) (Rattus norvegicus, UniProt Q9JKC1); assay: Inhibition of rat serum BuChE at 10 uM using butyrylthiocholine iodide as substrate incubated for 15 mins by Ellman's method relative to control; type: cell-free; settings: probe butyrylthiocholine iodide
Chain of butyrylcholinesterase (BuChE) (Q9JKC1 whole entry): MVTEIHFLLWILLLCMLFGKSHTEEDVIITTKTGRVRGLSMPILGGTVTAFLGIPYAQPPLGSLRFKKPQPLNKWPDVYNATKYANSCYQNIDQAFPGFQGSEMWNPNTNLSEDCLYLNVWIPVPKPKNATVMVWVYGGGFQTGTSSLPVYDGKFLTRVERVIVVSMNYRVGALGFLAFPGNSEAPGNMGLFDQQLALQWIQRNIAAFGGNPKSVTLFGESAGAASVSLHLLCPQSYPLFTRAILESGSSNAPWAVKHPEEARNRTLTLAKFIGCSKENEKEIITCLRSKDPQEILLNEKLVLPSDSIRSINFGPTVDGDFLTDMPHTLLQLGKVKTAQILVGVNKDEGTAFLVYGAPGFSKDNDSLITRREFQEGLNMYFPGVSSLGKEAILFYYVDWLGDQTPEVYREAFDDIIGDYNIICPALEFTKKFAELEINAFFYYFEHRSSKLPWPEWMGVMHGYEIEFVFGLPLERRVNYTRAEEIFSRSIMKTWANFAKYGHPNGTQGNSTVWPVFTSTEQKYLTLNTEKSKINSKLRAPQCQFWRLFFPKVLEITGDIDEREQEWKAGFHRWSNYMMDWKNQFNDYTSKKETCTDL

[7] = Antioxidant activity assessed as trolox equivalent of AAPH radical scavenging activity measured every min for 90 mins by ORAC-FL assay; type: functional
[8] = biological target: Acetylcholinesterase (Electrophorus electricus) (UniProt O42275); assay: Inhibition of Electrophorus electricus AChE at 10 uM using acetylthiocholine iodide as substrate incubated for 15 mins by Ellman's method relative to control
Chain of Acetylcholinesterase (Electrophorus electricus) (O42275 24-633 limits assumed): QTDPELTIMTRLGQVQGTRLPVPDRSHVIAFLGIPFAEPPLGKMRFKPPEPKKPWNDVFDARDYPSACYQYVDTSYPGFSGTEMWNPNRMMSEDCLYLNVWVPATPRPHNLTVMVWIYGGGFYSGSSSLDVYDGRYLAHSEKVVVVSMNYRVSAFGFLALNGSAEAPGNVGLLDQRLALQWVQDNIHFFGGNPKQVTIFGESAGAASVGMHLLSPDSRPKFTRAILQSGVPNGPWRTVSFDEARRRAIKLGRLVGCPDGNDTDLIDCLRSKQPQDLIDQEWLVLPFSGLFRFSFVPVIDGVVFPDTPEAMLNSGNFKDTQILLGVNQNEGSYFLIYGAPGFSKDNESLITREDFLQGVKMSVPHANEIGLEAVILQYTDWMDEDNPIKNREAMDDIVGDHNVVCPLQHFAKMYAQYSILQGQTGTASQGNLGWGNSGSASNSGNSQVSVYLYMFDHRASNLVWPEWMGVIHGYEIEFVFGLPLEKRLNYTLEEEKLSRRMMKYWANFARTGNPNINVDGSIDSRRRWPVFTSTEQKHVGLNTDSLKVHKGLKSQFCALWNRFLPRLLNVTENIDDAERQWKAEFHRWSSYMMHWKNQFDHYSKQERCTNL

[9] = biological target: Acetylcholinesterase (Homo sapiens, UniProt P22303); assay: Inhibition of human AChE using acetylthiocholine iodide as substrate incubated for 15 mins by Ellman's method
Chain of Acetylcholinesterase (Homo sapiens, UniProt P22303) (P22303 whole entry, the tested form may be a part): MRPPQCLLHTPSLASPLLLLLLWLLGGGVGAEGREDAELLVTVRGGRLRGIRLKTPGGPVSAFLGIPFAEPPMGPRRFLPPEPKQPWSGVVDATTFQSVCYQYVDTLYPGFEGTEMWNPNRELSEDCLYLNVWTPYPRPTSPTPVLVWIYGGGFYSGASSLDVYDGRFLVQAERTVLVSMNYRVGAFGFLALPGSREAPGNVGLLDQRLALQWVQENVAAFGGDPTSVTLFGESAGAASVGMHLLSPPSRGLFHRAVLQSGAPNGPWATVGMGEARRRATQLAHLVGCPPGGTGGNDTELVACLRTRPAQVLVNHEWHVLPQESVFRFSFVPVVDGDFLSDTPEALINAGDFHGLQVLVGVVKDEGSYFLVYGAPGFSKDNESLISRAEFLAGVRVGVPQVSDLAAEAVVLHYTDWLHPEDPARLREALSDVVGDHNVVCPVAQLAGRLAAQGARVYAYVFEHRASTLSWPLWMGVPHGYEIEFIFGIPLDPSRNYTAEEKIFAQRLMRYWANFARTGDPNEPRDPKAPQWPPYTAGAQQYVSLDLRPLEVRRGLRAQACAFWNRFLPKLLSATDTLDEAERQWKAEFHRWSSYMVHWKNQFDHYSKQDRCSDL

[10] = Inhibition of Cu2+-induced amyloid beta (1 to 42 residues) aggregation at 25 uM after 24 hrs by thioflavin T-based fluorescence assay relative to control

Chain of Acetylcholinesterase (Electrophorus electricus, UniProt O42275) (O42275 whole entry): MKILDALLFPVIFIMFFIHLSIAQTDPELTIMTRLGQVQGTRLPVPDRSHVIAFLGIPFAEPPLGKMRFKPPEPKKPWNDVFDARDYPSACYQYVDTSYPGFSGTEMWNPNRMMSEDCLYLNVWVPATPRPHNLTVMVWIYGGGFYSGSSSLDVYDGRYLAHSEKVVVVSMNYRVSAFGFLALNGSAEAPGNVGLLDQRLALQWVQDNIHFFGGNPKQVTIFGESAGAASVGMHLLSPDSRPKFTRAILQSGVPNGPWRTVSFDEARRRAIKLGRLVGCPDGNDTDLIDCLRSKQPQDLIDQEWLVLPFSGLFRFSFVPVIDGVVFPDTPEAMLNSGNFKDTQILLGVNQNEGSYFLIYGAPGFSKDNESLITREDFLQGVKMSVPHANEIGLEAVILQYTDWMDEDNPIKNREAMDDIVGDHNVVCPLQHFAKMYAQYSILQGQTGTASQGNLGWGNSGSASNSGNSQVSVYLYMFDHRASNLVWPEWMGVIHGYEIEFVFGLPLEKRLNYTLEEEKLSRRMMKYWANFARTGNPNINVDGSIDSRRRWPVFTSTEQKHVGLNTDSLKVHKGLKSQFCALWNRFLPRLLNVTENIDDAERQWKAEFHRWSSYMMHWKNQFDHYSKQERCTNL

Compound | IC50 [1] [nM] | inhibition at 0.5 h, 10 µM [2] [%] | inhibition at 33 µM [3] [%] | inhibition at 10 µM [4] [%] | inhibition [5] [%] | inhibition at […], 10 µM [6] [%] | Activity [7] [equiv] | inhibition [8] [%] | IC50 [9] [nM] | inhibition [10] [%]
CCN(CC)c1ccc(/C=C2/OC(=O)c3cc(OC)c(OC)cc32)cc1O | 26 | 48 | < 5 | 49 | 26.1 | 5.7 | 4.48 |  |  | 
COc1cc2c(cc1OC)C(Cc1ccc(N3CCN(C)CC3)c(O)c1)OC2=O (stereo not drawn) |  | 5.6 |  | 17 |  | < 5 | 2.09 | 42.4 |  | 
COc1cc2c(cc1OC)/C(=C/c1cccc(O)c1N1CCN(C)CC1)OC2=O |  | < 5 |  | 29.5 |  | < 5 | 2.09 | 22.3 |  | 
COc1cc2c(cc1OC)/C(=C/c1ccc(N3CCCCC3)c(O)c1)OC2=O | 66 | 6.1 | 15.4 | < 5 | 24.6 | < 5 | 1.46 |  | 50 | 
COc1cc2c(cc1OC)/C(=C\c1ccc(N3CCN(C)CC3)c(O)c1)OC2=O | 2630 | 5 |  | 31.4 |  | 5.5 | 2.36 |  |  | 
COc1cc2c(cc1OC)C(Cc1ccc(N3CCCC3)c(O)c1)OC2=O (stereo not drawn) | 960 | < 5 | < 5 | 14.6 | 31.1 | 19.8 | 2.54 |  |  | 18.5
COc1cc2c(cc1OC)C(Cc1cccc(O)c1N1CCCCC1)OC2=O (stereo not drawn) |  | < 5 |  | 15.6 |  | < 5 | 1.44 | 12.6 |  | 
COc1cc2c(cc1OC)C(Cc1cccc(O)c1)OC2=O (stereo not drawn) |  | 7.9 |  | 6.2 |  | < 5 | 0.95 | 14.4 |  | 
COc1cc2c(cc1OC)/C(=C/c1ccc(N3CCOCC3)c(O)c1)OC2=O | 9680 | 5.3 |  | 50.2 | 26.7 | < 5 | 1.77 |  |  | 
COc1cc2c(cc1OC)/C(=C\c1ccc(N3CCCCC3)c(O)c1)OC2=O | 8.83 | 49.1 | < 5 | 16.1 | 22.5 | 26.2 | 1.94 |  | 12 | 
COc1cc2c(cc1OC)/C(=C\c1cccc(O)c1N1CCOCC1)OC2=O |  | < 5 |  | 10.1 |  | 11.3 | 2.06 | 40.8 |  | 
COc1cc2c(cc1OC)C(Cc1cccc(O)c1N1CCCC1)OC2=O (stereo not drawn) |  | 10.5 |  | 11.3 |  | 7.1 | 1.86 | 19.4 |  | 
CCN(CC)c1c(O)cccc1/C=C1/OC(=O)c2cc(OC)c(OC)cc21 |  | < 5 |  | 44.6 |  | 31.4 | 2.53 | 46.9 |  | 
CCN(CC)c1c(O)cccc1CC1OC(=O)c2cc(OC)c(OC)cc21 (stereo not drawn) |  | < 5 |  | < 5 |  | 12.5 | 2.78 | 16.3 |  | 
CCN(CC)c1c(O)cccc1/C=C1\OC(=O)c2cc(OC)c(OC)cc21 |  | < 5 |  | 44.9 |  | < 5 | 2.87 | 38 |  | 
COc1cc2c(cc1OC)/C(=C\c1ccc(N3CCOCC3)c(O)c1)OC2=O | 2430 | 18.7 |  | 13 | 24.9 | 5.7 | 1.76 |  |  | 

Compound | IC50 [1] [nM] | inhibition at 0.5 h, 10 µM [2] [%] | inhibition at 33 µM [3] [%] | inhibition at 10 µM [4] [%] | inhibition [5] [%] | inhibition at […], 10 µM [6] [%] | Activity [7] [equiv] | inhibition [8] [%] | IC50 [9] [nM] | inhibition [10] [%]
CC(=O)Oc1ccccc1C(=O)O [ASPIRIN] |  |  | 12.4 |  |  |  |  |  |  | 
CCN(CC)c1ccc(/C=C2\OC(=O)c3cc(OC)c(OC)cc32)cc1O | 72 | < 5 | 12.4 | 39.4 | 28.6 | < 5 | 2.7 |  |  | 
COc1cc2c(cc1OC)/C(=C\c1cccc(O)c1N1CCN(C)CC1)OC2=O | 12400 | 10 |  | 13.2 |  | 5.9 | 1.38 |  |  | 
COc1cc2c(cc1OC)/C(=C/c1ccc(N3CCCC3)c(O)c1)OC2=O | 31 | 5.1 | < 5 | 28.3 | 23 | 9.4 | 4.1 |  |  | 
COc1cc2c(cc1OC)/C(=C\c1cccc(O)c1N1CCCC1)OC2=O | 19500 | < 5 |  | 12.5 |  | 49.6 | 2.46 |  |  | 
COc1cc2c(cc1OC)/C(=C/c1cccc(O)c1N1CCOCC1)OC2=O |  | 6.6 |  | 27.9 |  | < 5 | 1.48 | 15.1 |  | 
COc1cc2c(cc1OC)/C(=C/c1cccc(O)c1N1CCCCC1)OC2=O |  | < 5 |  | 20.3 |  | 6.7 | 2.08 | 41.1 |  | 
CCN(CC)c1ccc(CC2OC(=O)c3cc(OC)c(OC)cc32)cc1O (stereo not drawn) | 2210 | < 5 | < 5 | < 5 | 30.1 | < 5 | 2.14 |  |  | 14.3
COc1cc2c(cc1OC)C(Cc1ccc(N3CCOCC3)c(O)c1)OC2=O (stereo not drawn) | 8260 | 8.7 |  | 34.7 | 29.5 | < 5 | 2.42 |  |  | 9.5
COc1cc2c(cc1OC)C(Cc1cccc(O)c1N1CCN(C)CC1)OC2=O (stereo not drawn) |  | < 5 |  | < 5 |  | < 5 | 2.13 | 14 |  | 
COc1cc2c(cc1OC)/C(=C/c1cccc(O)c1N1CCCC1)OC2=O | 8860 | < 5 |  | 10.3 |  | 8.8 | 2.18 |  |  | 
COc1cc2c(cc1OC)C(Cc1ccc(N3CCCCC3)c(O)c1)OC2=O (stereo not drawn) | 33 | 14.8 | < 5 | 8.6 | 28.9 | 10.3 | 2.42 |  |  | 12.8
COc1cc2c(cc1OC)/C(=C\c1cccc(O)c1N1CCCCC1)OC2=O |  | < 5 |  | 24.2 |  | 16.4 | 2.58 | 42.8 |  | 
COc1cc2c(cc1OC)C(Cc1cccc(O)c1N1CCOCC1)OC2=O (stereo not drawn) |  | < 5 |  | 19.1 |  | < 5 | 2.28 | 11 |  | 
COc1cc2c(cc1OC)/C(=C\c1ccc(N3CCCC3)c(O)c1)OC2=O | 660 | 32 | 9.8 | 27.8 | 30.6 | 16.5 | 2.82 |  |  | 
